Data from US10409869B2, “(R)- and (S)-1-(3-(3-N,N-dimethylaminocarbonyl)phenoxyl-4-nitrophenyl)-1-ethyl-N,N'-bis (ethylene)phosphoramidate, compositions and methods for their use and preparation” (OBI Pharma, Inc., priority 2015, dated 2019).

Columns and labels:
[1] = Body weight in monkeys, 2 mg/kg 30-min IV infusion; format: in vivo, Cynomolgus monkeys
Protocol: (§1) TH 3423 and TH 3424 were tested in […] naïve monkeys (1 male and one female for each compound at 2 mg/kg) with 30-min intravenous infusion, TK sampling: on Day 1 and Day 15: 0.25, 0.5, 0.75, 1 and 2 hr post infusion initiation. Serum chemistry and hematology: pre-dose (Day 1), day 5, day 8 (pre-dose), day 15 (pre-dose), day 22 and day 28. Clinical observation: Daily during the study, total 35 days. Food consumption: Daily during the study, total 35 days. Bodyweight measurement: Twice weekly for five weeks.

[2] = Hematology in monkeys, 2 mg/kg 30-min IV infusion; format: in vivo, Cynomolgus monkeys
Protocol: as §1

Structure (SMILES): C[C@H](OP(=O)(N1CC1)N1CC1)c1ccc([N+](=O)[O-])c(Oc2cccc(C(=O)N(C)C)c2)c1 (single isomer, unassigned) [TH3424]
- body weight ([1]; Day 1, male): 3.40
- body weight ([1]; Day 4, male): 3.30
- body weight ([1]; Day 8, Mean): 3.20
- % BASO ([2]; female, Day 1 (pre-dose)): 0.1%
- % EOS ([2]; female, Day 1 (pre-dose)): 3.3%
- % MONO ([2]; female, Day 1 (pre-dose)): 0.9%
- % NEUT ([2]; female, Day 1 (pre-dose)): 72.8%
- HCT ([2]; female, Day 1 (pre-dose)): 35.7%
- HGB ([2]; female, Day 1 (pre-dose)): 118 g/L
- LYM ([2]; female, Day 1 (pre-dose)): 22.9%
- MCH ([2]; female, Day 1 (pre-dose)): 25.4 pg
- MCHC ([2]; female, Day 1 (pre-dose)): 331 g/L
- MCV ([2]; female, Day 1 (pre-dose)): 76.8 fL
- MPV ([2]; female, Day 1 (pre-dose)): 13 fL
- PCT ([2]; female, Day 1 (pre-dose)): 0.277%
- PDW ([2]; female, Day 1 (pre-dose)): 15.4
- PLT ([2]; female, Day 1 (pre-dose)): 2.13e+11 L⁻¹
- RBC ([2]; female, Day 1 (pre-dose)): 4.65e+12 L⁻¹
- RDW-CV ([2]; female, Day 1 (pre-dose)): 11.5%
- RDW-SD ([2]; female, Day 1 (pre-dose)): 37.4 fL
- WBC ([2]; female, Day 1 (pre-dose)): 1.164e+10 L⁻¹
- abs_basos ([2]; female, Day 1 (pre-dose)): 1e+07 L⁻¹
- abs_eos ([2]; female, Day 1 (pre-dose)): 3.9e+08 L⁻¹
- abs_lymphs ([2]; female, Day 1 (pre-dose)): 2.66e+09 L⁻¹
- abs_monos ([2]; female, Day 1 (pre-dose)): 1.1e+08 L⁻¹
- abs_neuts ([2]; female, Day 1 (pre-dose)): 8.47e+09 L⁻¹
- % EOS ([2]; female, Day 8 (pre-dose)): 1.50%
- % MONO ([2]; female, Day 8 (pre-dose)): 0.20%
- % NEUT ([2]; female, Day 8 (pre-dose)): 49.10%
- HCT ([2]; female, Day 8 (pre-dose)): 39.30%
- HGB ([2]; female, Day 8 (pre-dose)): 130.00 g/L
- LYM ([2]; female, Day 8 (pre-dose)): 18.90%
- MCH ([2]; female, Day 8 (pre-dose)): 25.30 pg
- MCHC ([2]; female, Day 8 (pre-dose)): 331.00 g/L
- MCV ([2]; female, Day 8 (pre-dose)): 76.30 fL
- MPV ([2]; female, Day 8 (pre-dose)): 12.80 fL
- PCT ([2]; female, Day 8 (pre-dose)): 0.50%
- PDW ([2]; female, Day 8 (pre-dose)): 15.50
- PLT ([2]; female, Day 8 (pre-dose)): 3.9e+11 L⁻¹
- RBC ([2]; female, Day 8 (pre-dose)): 5.15e+12 L⁻¹
- RDW-CV ([2]; female, Day 8 (pre-dose)): 11.20%
- RDW-SD ([2]; female, Day 8 (pre-dose)): 36.20 fL
- WBC ([2]; female, Day 8 (pre-dose)): 1.691e+10 L⁻¹
- abs_basos ([2]; female, Day 8 (pre-dose)): 5.13e+09 L⁻¹
- abs_eos ([2]; female, Day 8 (pre-dose)): 2.6e+08 L⁻¹
- abs_lymphs ([2]; female, Day 8 (pre-dose)): 3.2e+09 L⁻¹
- abs_monos ([2]; female, Day 8 (pre-dose)): 3e+07 L⁻¹
- abs_neuts ([2]; female, Day 8 (pre-dose)): 8.29e+09 L⁻¹
- % BASO ([2]; female, Day 15 (pre-dose)): 0.90%
- % EOS ([2]; female, Day 15 (pre-dose)): 1.70%
- % MONO ([2]; female, Day 15 (pre-dose)): 3.00%
- % NEUT ([2]; female, Day 15 (pre-dose)): 80.8%
- HCT ([2]; female, Day 15 (pre-dose)): 36.3%
- HGB ([2]; female, Day 15 (pre-dose)): 125 g/L
- LYM ([2]; female, Day 15 (pre-dose)): 13.60%
- MCH ([2]; female, Day 15 (pre-dose)): 25.3 pg
- MCHC ([2]; female, Day 15 (pre-dose)): 344 g/L
- MCV ([2]; female, Day 15 (pre-dose)): 73.5 fL
- MPV ([2]; female, Day 15 (pre-dose)): 12.5 fL
- PCT ([2]; female, Day 15 (pre-dose)): 0.275%
- PDW ([2]; female, Day 15 (pre-dose)): 16.2
- PLT ([2]; female, Day 15 (pre-dose)): 2.21e+11 L⁻¹
- RBC ([2]; female, Day 15 (pre-dose)): 4.94e+12 L⁻¹
- RDW-CV ([2]; female, Day 15 (pre-dose)): 11.0%
- RDW-SD ([2]; female, Day 15 (pre-dose)): 34.1 fL
- WBC ([2]; female, Day 15 (pre-dose)): 2.07e+10 L⁻¹
- abs_basos ([2]; female, Day 15 (pre-dose)): 1.9e+08 L⁻¹
- abs_eos ([2]; female, Day 15 (pre-dose)): 3.7e+08 L⁻¹
- abs_lymphs ([2]; female, Day 15 (pre-dose)): 2.8e+09 L⁻¹
- abs_monos ([2]; female, Day 15 (pre-dose)): 6.2e+08 L⁻¹
- abs_neuts ([2]; female, Day 15 (pre-dose)): 1.67e+10 L⁻¹
- % BASO ([2]; male, Day 1 (pre-dose)): 0.0%
- % EOS ([2]; male, Day 1 (pre-dose)): 2.6%
- % MONO ([2]; male, Day 1 (pre-dose)): 0.1%
- % NEUT ([2]; male, Day 1 (pre-dose)): 58.4%
- HCT ([2]; male, Day 1 (pre-dose)): 34.9%
- HGB ([2]; male, Day 1 (pre-dose)): 117 g/L
- LYM ([2]; male, Day 1 (pre-dose)): 38.9%
- MCH ([2]; male, Day 1 (pre-dose)): 25.7 pg
- MCHC ([2]; male, Day 1 (pre-dose)): 335 g/L
- MCV ([2]; male, Day 1 (pre-dose)): 76.7 fL
- MPV ([2]; male, Day 1 (pre-dose)): 11.1 fL
- PCT ([2]; male, Day 1 (pre-dose)): 0.267%
- PDW ([2]; male, Day 1 (pre-dose)): 15.5
- PLT ([2]; male, Day 1 (pre-dose)): 2.4e+11 L⁻¹
- RBC ([2]; male, Day 1 (pre-dose)): 4.55e+12 L⁻¹
- RDW-CV ([2]; male, Day 1 (pre-dose)): 11.8%
- RDW-SD ([2]; male, Day 1 (pre-dose)): 38.1 fL
- WBC ([2]; male, Day 1 (pre-dose)): 4.71e+09 L⁻¹
- abs_basos ([2]; male, Day 1 (pre-dose)): 0 L⁻¹
- abs_eos ([2]; male, Day 1 (pre-dose)): 1.2e+08 L⁻¹
- abs_lymphs ([2]; male, Day 1 (pre-dose)): 1.84e+09 L⁻¹
- abs_monos ([2]; male, Day 1 (pre-dose)): 0 L⁻¹
- abs_neuts ([2]; male, Day 1 (pre-dose)): 2.75e+09 L⁻¹
- % BASO ([2]; male, Day 8 (pre-dose)): 5.30%
- % EOS ([2]; male, Day 8 (pre-dose)): 1.10%
- % MONO ([2]; male, Day 8 (pre-dose)): 13.10%
- % NEUT ([2]; male, Day 8 (pre-dose)): 34.60%
- HCT ([2]; male, Day 8 (pre-dose)): 35.20%
- HGB ([2]; male, Day 8 (pre-dose)): 117.00 g/L
- LYM ([2]; male, Day 8 (pre-dose)): 45.90%
- MCH ([2]; male, Day 8 (pre-dose)): 25.50 pg
- MCHC ([2]; male, Day 8 (pre-dose)): 332.00 g/L
- MCV ([2]; male, Day 8 (pre-dose)): 76.70 fL
- MPV ([2]; male, Day 8 (pre-dose)): 10.30 fL
- PCT ([2]; male, Day 8 (pre-dose)): 0.51%
- PDW ([2]; male, Day 8 (pre-dose)): 15.30
- PLT ([2]; male, Day 8 (pre-dose)): 4.96e+11 L⁻¹
- RBC ([2]; male, Day 8 (pre-dose)): 4.59e+12 L⁻¹
- RDW-CV ([2]; male, Day 8 (pre-dose)): 11.50%
- RDW-SD ([2]; male, Day 8 (pre-dose)): 37.20 fL
- WBC ([2]; male, Day 8 (pre-dose)): 9.15e+09 L⁻¹
- abs_basos ([2]; male, Day 8 (pre-dose)): 4.9e+08 L⁻¹
- abs_eos ([2]; male, Day 8 (pre-dose)): 1e+08 L⁻¹
- abs_lymphs ([2]; male, Day 8 (pre-dose)): 4.19e+09 L⁻¹
- abs_monos ([2]; male, Day 8 (pre-dose)): 1.21e+09 L⁻¹
- abs_neuts ([2]; male, Day 8 (pre-dose)): 3.16e+09 L⁻¹
- % BASO ([2]; male, Day 15 (pre-dose)): 0.10%
- % EOS ([2]; male, Day 15 (pre-dose)): 3.10%
- % MONO ([2]; male, Day 15 (pre-dose)): 4.40%
- % NEUT ([2]; male, Day 15 (pre-dose)): 65.7%
- HCT ([2]; male, Day 15 (pre-dose)): 37.4%
- HGB ([2]; male, Day 15 (pre-dose)): 127 g/L
- LYM ([2]; male, Day 15 (pre-dose)): 26.70%
- MCH ([2]; male, Day 15 (pre-dose)): 25.3 pg
- MCHC ([2]; male, Day 15 (pre-dose)): 340 g/L
- MCV ([2]; male, Day 15 (pre-dose)): 74.5 fL
- MPV ([2]; male, Day 15 (pre-dose)): 9.5 fL
- PCT ([2]; male, Day 15 (pre-dose)): 0.593%
- PDW ([2]; male, Day 15 (pre-dose)): 15.4
- PLT ([2]; male, Day 15 (pre-dose)): 6.23e+11 L⁻¹
- RBC ([2]; male, Day 15 (pre-dose)): 5.02e+12 L⁻¹
- RDW-CV ([2]; male, Day 15 (pre-dose)): 11.5%
- RDW-SD ([2]; male, Day 15 (pre-dose)): 36.3 fL
- WBC ([2]; male, Day 15 (pre-dose)): 1.326e+10 L⁻¹
- abs_basos ([2]; male, Day 15 (pre-dose)): 2e+07 L⁻¹
- abs_eos ([2]; male, Day 15 (pre-dose)): 4.1e+08 L⁻¹
- abs_lymphs ([2]; male, Day 15 (pre-dose)): 3.54e+09 L⁻¹
- abs_monos ([2]; male, Day 15 (pre-dose)): 5.9e+08 L⁻¹
- abs_neuts ([2]; male, Day 15 (pre-dose)): 8.7e+09 L⁻¹
